In patent US20210340130A1, “Compositions and methods for treating attention deficit disorders” (priority 2016, published 2021):

Columns and labels:
[1] = tested on: perforant path / dentate gyrus of the hippocampus (fEPSPs); test: Effect on evoked fEPSPs in rat hippocampus (anesthetized animals, in vivo); parameters: species or system Rat (Long Evans); conditions: for Minimum Effective Dose: IP, dose range 5-20 mg/kg; for duration of the fEPSP effect: about 2 hours monitoring, CX717 at 20 mg/kg; for effect on evoked fEPSP / maximum increase in fEPSP amplitude: intraperitoneal administration
Protocol: Further selection and characterization of ampakines to identify anti-ADHD drugs useful within the invention involved electrophysiological studies (to measure “electrically evoked field excitatory postsynaptic potentials” (fEPSPs) for test compounds). CX717 and CX1739 were tested for their ability to facilitate synaptic responses in vivo in anesthetized animals following peripheral administration. Stimulating and recording electrodes were inserted into the perforant path and dentate gyrus of the hippocampus, respectively. Electrically evoked field excitatory postsynaptic responses (fEPSPs) were measured before administration of ampakines, and for approximately 2 hours following intraperitoneal administration of ampakines.
Electrically evoked field excitatory postsynaptic potentials (fEPSPs) were determined for the exemplary test ampakines CX717 and CX1739 as described. […] The response magnitude was related to the plasma levels achieved during the study. […] Both ampakines appear to produce a 25% maximum increase in fEPSP amplitude.

[2] = tested on: Rat (Wistar); test: Novel object recognition memory; format: in vivo; conditions: for Minimum Effective Dose: IP
Protocol: Additional Novel Object Recognition behavioral model studies were conducted to further elucidate the anti-ADHD activities of CX717 and CX1739. Rats were habituated to a test box for two 5 minute sessions on consecutive days. Each test session consisted of two phases: in the first phase (“sample period”), two identical objects (A1 and A2) were placed in the far corners of the box, and the rats were allowed to explore the objects. After a 24 hour delay, rats were re-introduced to the arena (“test period”) now containing a third identical copy of the familiar object (A3) and a new object (B), placed in the same locations as in the first phase, and the total time spent exploring each of the objects was determined over a 3-min duration. For CX717 drug treatment, rats were dosed 30 min prior to each sample session with either 0.1, 0.3, 1.0 mg/kg CX717 (p.o.); vehicle (0.5% methylcellulose, p.o.) or 0.9 mg/kg Aricept (E2020, i.p.). The exploration times for the full 3-min were calculated and expressed as the discrimination index, d1, defined as the absolute difference in time spent exploring the novel object minus the familiar object.
For CX1739 Male Wistar rats were assessed for cognitive ability in a test apparatus comprising an open-field arena placed in a sound-attenuated room under dimmed lighting. Rat exploration and activity were captured by a digital camera, and viewed on a monitor in an adjoining area. Following a 5-minute habituation period, each animal was placed in the test arena in the presence of two identical objects (plastic shapes) and the time spent actively exploring the objects during a 5-minute test period (T1) was recorded. After 24 hours, each rat was again placed in the test arena for 5 minutes (T2) in the presence of one familiar object and one novel object, and the time spent exploring both objects was recorded. The Recognition Index was calculated as the percentage of total exploration time spent exploring the novel object during the retention session (T2), which provides the primary measure of cognitive function in this assay.
The Novel object recognition (NOR) paradigm is a rodent model of recognition learning memory retrieval and takes advantage of the spontaneous behavior of rodents to investigate a novel object compared with a familiar object. NOR has been employed extensively to indicate cognition-enhancing properties of drug candidates, predictive of therapeutic efficacy of positively-assaying drugs for reducing ADHD symptoms in humans.

[3] = tested on: Rat (SD); test: Radial arm maze - spatial memory; format: in vivo; conditions: for Minimum Effective Dose: IP
Protocol: Yet another animal model for evaluating ampakine drug activity employed herein is the well known and widely accepted Radial Arm Maze model. CX717 was tested for its ability to improve the performance of aged rats in an eight-arm radial maze using a cross-over design study. This behavioral test uses a standard eight-arm radial maze wherein five arms were open and baited with food pellets for the first morning session. Each animal was allowed to consume the food rewards present in the open arms and was then returned to its home cage. Six hours later animals were returned to the maze, wherein all eight-arms were open, but only the three arms previously closed contained food rewards. Scoring was based on the number of correct choices before an incorrect choice (re-entering an arm that was visited during the morning acquisition session) was made and on the total number of incorrect choices made before all three of the still baited arms were visited. CX717 was tested at six doses (0.03, 0.1, 0.3, 1, 3 and 10 mg/kg in hydroxypropyl β-cyclodextran, i.p.), administered 30 min prior to the start of the morning acquisition session and no drug was given prior to the second trial six hours later.
For CX1739 male Sprague-Dawley rats were trained to perform the win shift assay on the radial arm maze for approximately 10 weeks prior to the study. On each day of training and testing, each rat completed one trial, split into a sample phase and a test phase. During the sample phase, the rat was placed on a 12-arm radial arm maze surrounded by visual cues. Food wells at the end of each arm were baited with sucrose pellets but access to three arms, selected randomly, was blocked with a clear plastic divider at the arm entrance. The rat was allowed 5 minutes to search the maze and collect the available food pellets before being removed from the maze. Fifteen minutes later the rat was returned to the maze for the test phase of the trial. During the test phase, the rat was allowed access to all 12 arms of the maze but only the arms that had been blocked previously were baited with sucrose pellets. The rat was allowed 3 minutes to collect the available food pellets before being removed from the maze. On test days, rats were injected with CX1739 (0.03-1.0 mg/kg, i.p.) or vehicle immediately following the sample phase of the study. The primary dependent measure was the cumulative number of arm entries prior to entering the first, second, and third baited arm during the test phase.

[4] = tested on: Mouse (CD1); test: Amphetamine-stimulated locomotion in mice; format: in vivo; conditions: for Minimum Effective Dose: IP, dose range 5.6-30 mg/kg; for amphetamine-stimulated locomotion, pre-treatment: amphetamine 2 mg/kg i.p.
Protocol: Effects of exemplary low impact ampakines were also evaluated in mice for the ability to inhibit amphetamine-stimulated locomotor activity. Mice were placed in the locomotor chamber for 20 min to habituate, removed, injected with either vehicle or anti-ADHD ampakine (CX717), and 5 min later injected with 2 mg/kg i.p. Amphetamine. Mice were returned to the locomotor chamber 10 min later, and their activity measured for a further 15 min. In related studies, adult male CD1 mice or male Sprague-Dawley rats were acclimated in a test chamber for 20 minutes removed and dosed i.p. (mice) or orally (rats) with CX1739, vehicle, or a reference compound. Five (mice) or 10 (rats) were then injected with amphetamine (2 mg/kg, i.p.) or saline vehicle and were returned to the activity test chamber.

[5] = aged rats, eight-arm maze, 0.03-10 mg/kg i.p.

Compound	Minimum Effective Dose [1] [mg/kg]	duration of the fEPSP effect [1]	effect on evoked fEPSP [1]	maximum increase in fEPSP amplitude [1] [%]	d1 scores (discrimination index) ([2]; 0.3 mg/kg, compared to vehicle)	Minimum Effective Dose [2] [mg/kg]	Minimum Effective Dose [3] [mg/kg]	doses with highly significant difference in performance between drug and vehicle days ([3]; Kruskal-Wallace P=0.008, Wilcoxon Signed Rank Test) [mg/kg]	number of correct choices (before making an error) in the second maze session [3, 5]	total number of errors [3, 5]	Minimum Effective Dose [4] [mg/kg]	amphetamine-stimulated locomotion, pre-treatment [4]	preference for novel object exploration versus positive control ([2]; 0.03 mg/kg)	preference for exploring the novel object ([2]; rat, in vivo)	entries before finding the third arm with a food pellet reward ([3]; 0.3 mg/kg, 12-arm maze, p<0.05)	optimal dose (dose producing the maximal effect) in the maze assay ([3]; ip) [mg/kg]	amphetamine-stimulated locomotion ([4]; 30 mg/kg ip)
O=C(c1ccc2nonc2c1)N1CCOCC1 [CX717, 1-(benzofurazan-5-ylcarbonyl)morpholine]	5	plateaued for the duration of monitoring	long-lasting increase in the evoked fEPSP in a concentration-dependent manner	~25	significant increase	0.3	0.3	≥ 0.3	dose-dependent increase	decrease	18	inhibited amphetamine-stimulated locomotion in mice in a dose-dependent manner					
CN(C(=O)c1ccc2nonc2c1)C1CCOCC1 [CX1739, N-Methyl-N-tetrahydro-2H-pyran-4-yl-[2,1,3]-benzoxadiazole-5-carboxamide]	5	declined to baseline after two hours	substantial increase in EPSP amplitude	~25		0.03	0.3				30	inhibited amphetamine-stimulated locomotion in mice in a dose-dependent manner	comparable to that of 3 mg/kg galantamine	significant increase	significantly fewer entries	0.3	significant decrease
